This is an account of results in patent publication US11963948B1, “2-(4-chlorophenyl)-4,5-bis(4-chlorophenyl)-1H-imidazole as an antimicrobial compound” (KING FAISAL UNIVERSITY, priority 2023, dated 2024).

One series relates to Pseudomonas aeruginosa. Briefly: Agar plate disc-diffusion, antibacterial activity, Pseudomonas aeruginosa. The class given is cell-based. As to conditions: Pseudomonas aeruginosa (Gram negative), nutrient agar, 37° C., 48 h. As for the experimental part: (§1) The agar plate disc-diffusion method was applied. […] The discs were then placed onto the surface of agar plates (nutrient agar for bacteria and Sabouraud's dextrose agar for fungi) seeded with the test organism. Each plate contained 15 mL of the agar medium, previously seeded with 0.2 mL of the broth culture of each organism pregrown for 18 hours. The plates were incubated at 37° C. for 48 h, and 72 h for fungi. The inhibition zones were measured in mm. Discs impregnated with DMSO were used as a control, and its inhibition zone was subtracted from the tested compound actual inhibition zone.
In general terms: A growth-free zone around the sample is the usual read-out of agar diffusion tests.

The next series concerns Escherichia coli. Briefly: Agar plate disc-diffusion, antibacterial activity, Escherichia coli. To be noted: Escherichia coli (Gram negative), nutrient agar, 37° C., 48 h. The class given is cell-based. As to the method:
as §1

Series [1] concerns Chrysosporium keratinophilum. Briefly: Agar plate disc-diffusion, antifungal activity, Chrysosporium keratinophilum. The class given is cell-based. As to conditions: Sabouraud's dextrose agar, 37° C., 72 h. As to the method:
as §1

Another series deals with Bacillus cereus. Kind of series: Agar plate disc-diffusion, antibacterial activity, Bacillus cereus. The class given is cell-based. As to conditions: Bacillus cereus (Gram positive), nutrient agar, 37° C., 48 h. As to the method:
as §1

A further series relates to Staphylococcus aureus. Briefly: Agar plate disc-diffusion, antibacterial activity, Staphylococcus aureus. It counts as cell-based. To be noted: Staphylococcus aureus (Gram positive), nutrient agar, 37° C., 48 h. As for the experimental part: as §1
A further series concerns Aspergillus flavus. Kind of series: Agar plate disc-diffusion, antifungal activity, Aspergillus flavus. It counts as cell-based. As to conditions: Sabouraud's dextrose agar, 37° C., 72 h. As for the experimental part:
The agar plate disc-diffusion method was applied. Sterilized filter papers (6 mm in diameter) were wetted with 10 μL of a solution of 2-(4-chlorophenyl)-4,5-bis(4-chlorophenyl)-1H-imidazole (IV) to be tested, containing 10 mg/mL in DMSO, and the discs were allowed to air dry. The discs were then placed onto the surface of agar plates (nutrient agar for bacteria and Sabouraud's dextrose agar for fungi) seeded with the test organism. Each plate contained 15 mL of the agar medium, previously seeded with 0.2 mL of the broth culture of each organism pregrown for 18 hours. The plates were incubated at 37° C. for 48 h, and 72 h for fungi. The inhibition zones were measured in mm. Discs impregnated with DMSO were used as a control, and its inhibition zone was subtracted from the tested compound actual inhibition zone.

Setting [2] is: A = concentration of comp. = 10,000 µg/mL.
[3] abbreviates: B = concentration of comp. = 30,000 μL.
The mark [4] stands for this setting: C = concentration of comp. = 50,000 μL.
The mark [5] stands for this setting: A = concentration of comp. = 10,000 μL.

On to `O=C(O)c1cn(C2CC2)c2cc(N3CCNCC3)c(F)cc2c1=O` [Cip., ciprofloxacin, reference compound], for which the inhibition zone in the series with Pseudomonas aeruginosa (setting [2]) stood at 29 mm; in the series on Pseudomonas aeruginosa (setting [3]), 30 mm; in the series on Pseudomonas aeruginosa (setting [4]), 53 mm; in the series with Escherichia coli (setting [5]) it was 30 mm; in the series with Escherichia coli (setting [3]) it was 39 mm; in the series on Escherichia coli (setting [4]), 60 mm. The inhibition zone in series [1] (setting [5]) is given as 29 mm; in series [1] (setting [3]) it was 30 mm; in series [1] (setting [4]) it was 53 mm; with Bacillus cereus (setting [5]) it was 29 mm; in the series on Bacillus cereus (setting [3]) it was 30 mm; in the series on Bacillus cereus (setting [4]) it was 42 mm. Further, the inhibition zone in the series with Staphylococcus aureus (setting [5]) was 43 mm; with Staphylococcus aureus (setting [3]) it was 44 mm; with Staphylococcus aureus (setting [4]), 53 mm; in the series with Aspergillus flavus (setting [5]) it was 29 mm; in the series on Aspergillus flavus (setting [3]), 30 mm; with Aspergillus flavus (setting [4]), 42 mm.

Take `Clc1ccc(-c2nc(-c3ccc(Cl)cc3)c(-c3ccc(Cl)cc3)[nH]2)cc1` [IV, 2-(4-chlorophenyl)-4,5-bis(4-chlorophenyl)-1H-imidazole]: the melting point lay in the range of 211 to 212 °C. In the series on Pseudomonas aeruginosa (setting [2]), the inhibition zone stood at 24 mm. The inhibition zone with Pseudomonas aeruginosa (setting [3]) came out at 26 mm. The compound also displayed an inhibition zone with Pseudomonas aeruginosa (setting [4]) of 43 mm. For the same compound, the inhibition zone in the series on Escherichia coli (setting [5]) was 25 mm. In addition, the inhibition zone with Escherichia coli (setting [3]) is recorded as 30 mm. Also, the inhibition zone in the series on Escherichia coli (setting [4]) was 48 mm. Further, the inhibition zone in series [1] (setting [5]) is 22 mm. Also, the inhibition zone in series [1] (setting [3]) is 27 mm. For the same compound, in series [1] (setting [4]), the inhibition zone was determined as 40 mm. Besides, in the series with Bacillus cereus (setting [5]), the inhibition zone is 25 mm. In the series on Bacillus cereus (setting [3]), this compound had an inhibition zone of 27 mm. The inhibition zone in the series with Bacillus cereus (setting [4]) was 40 mm. This compound also returned an inhibition zone with Staphylococcus aureus (setting [5]) of 17 mm. The inhibition zone in the series with Staphylococcus aureus (setting [3]) came to 23 mm. For the same compound, in the series with Staphylococcus aureus (setting [4]), the inhibition zone was 34 mm. Besides, the inhibition zone in the series with Aspergillus flavus (setting [5]) amounted to 23 mm. Moreover, in the series with Aspergillus flavus (setting [3]), the inhibition zone amounted to 25 mm. The compound also gave an inhibition zone with Aspergillus flavus (setting [4]) of 33 mm.

The melting point is the temperature, or range, at which the solid turns liquid.
